From ChEMBL document CHEMBL1138414, “Discovery of galectin ligands in fully randomized combinatorial one-bead-one-compound (glyco)peptide libraries” (2007) come the findings set out here.

For assay [1], the target named is Galectin-1 (Homo sapiens) (UniProt P09382). Kind of assay: Inhibition of carbohydrate-dependent human galectin1 binding at 10 mM by solid phase assay.
In assay [2] the test system is CAPAN-1. Description: Inhibition of carbohydrate-dependent galectin1 binding to human Capan1 cell surface at 2mM. The arrangement: scale not given: the % may be the effect or the level left. It counts as functional.
Assay [3] concerns the target Galectin-3 (Homo sapiens) (UniProt P17931). Kind of assay: Inhibition of carbohydrate-dependent human galectin3 binding at 10 mM by solid phase assay.
In assay [4] the test system is SW480. Kind of assay: Inhibition of carbohydrate-dependent galectin3 binding to human SW480 cell surface at 1mM. The assay is classed as functional. The arrangement: scale not given: the % may be the effect or the level left.
For assay [5], the system named is SW480. Kind of assay: Inhibition of carbohydrate-dependent galectin3 binding to human SW480 cell surface at 5 mM. It counts as functional, cell-based. The arrangement: scale not given: the % may be the effect or the level left.
Assay [6] concerns SW480. Description: Inhibition of carbohydrate-dependent galectin3 binding to human SW480 cell surface at 0.5mM. The assay is classed as functional, cell-based. The arrangement: scale not given: the % may be the effect or the level left.
For assay [7], the system named is SW480. Kind of assay: Inhibition of carbohydrate-dependent galectin3 binding to human SW480 cell surface at 2mM. It counts as functional, cell-based. The arrangement: scale not given: the % may be the effect or the level left.

Activity calls are given as the source filed them. The rule behind the calls is not given here. Non-standard residues stand in square brackets, D forms with d. Residues, ends and D or L forms follow the SMILES beside them. *: point of attachment. X1 = OC[C@H]1O[C@@H](O[C@H]2[C@H](O)[C@@H](O)[C@@H](*)O[C@@H]2CO)[C@H](O)[C@@H](O)[C@H]1O; βGal = OC[C@H]1O[C@@H](*)[C@H](O)[C@@H](O)[C@H]1O; X2 = OC[C@H]1O[C@@H](N*)[C@H](O)[C@@H](O)[C@H]1O; Cha = N[C@@H](CC1CCCCC1)C(=O)O

Chain of Galectin-1 (Homo sapiens) (P09382 whole entry): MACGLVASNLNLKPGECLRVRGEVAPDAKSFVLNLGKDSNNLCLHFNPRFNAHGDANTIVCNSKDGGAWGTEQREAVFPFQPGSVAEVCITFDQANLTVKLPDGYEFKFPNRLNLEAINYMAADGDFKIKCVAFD
Chain of Galectin-3 (Homo sapiens) (P17931 whole entry): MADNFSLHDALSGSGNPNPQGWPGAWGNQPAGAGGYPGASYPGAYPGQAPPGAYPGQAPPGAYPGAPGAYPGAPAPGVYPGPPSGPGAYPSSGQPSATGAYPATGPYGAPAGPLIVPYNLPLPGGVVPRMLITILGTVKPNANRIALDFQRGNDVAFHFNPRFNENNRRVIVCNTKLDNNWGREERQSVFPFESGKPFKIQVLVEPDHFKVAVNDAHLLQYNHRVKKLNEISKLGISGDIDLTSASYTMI

In the case of `CSCC[C@H](NC(=O)[C@@H](N)[C@@H](C)O[C@H]1O[C@H](CO)[C@@H](O[C@@H]2O[C@H](CO)[C@H](O)[C@H](O)[C@H]2O)[C@H](O)[C@H]1O)C(=O)N[C@@H](CCCNC(=N)N)C(=O)N[C@@H](C)C(=O)N[C@H](C(=O)N[C@@H](CC1CCCCC1)C(=O)O)[C@@H](C)O[C@H]1O[C@H](CO)[C@@H](O[C@@H]2O[C@H](CO)[C@H](O)[C@H](O)[C@H]2O)[C@H](O)[C@H]1O`, the inhibition in assay [1] was 38%. The molecule also returned an Activity in assay [2] of 22%. In assay [1], `CC[C@H](C)[C@H](NC(=O)[C@H](Cc1ccccc1)NC(=O)[C@@H]1CCCN1)C(=O)N[C@@H](CC1CCCCC1)C(=O)N[C@@H](Cc1ccccc1)C(=O)N[C@@H](CCC(N)=O)C(=O)O` had an inhibition of 14%.

As for `CSCC[C@H](N)C(=O)N[C@@H](CCCNC(=N)N)C(=O)N[C@H](C(=O)N[C@@H](CCCNC(=N)N)C(=O)N[C@H](C(=O)N[C@@H](CCCNC(=N)N)C(=O)O)[C@@H](C)O[C@H]1O[C@H](CO)[C@@H](O[C@@H]2O[C@H](CO)[C@H](O)[C@H](O)[C@H]2O)[C@H](O)[C@H]1O)[C@@H](C)O[C@H]1O[C@H](CO)[C@@H](O[C@@H]2O[C@H](CO)[C@H](O)[C@H](O)[C@H]2O)[C@H](O)[C@H]1O`, the inhibition result in assay [3] is “inactive”. Molecule `C[C@@H](O)[C@H](NC(=O)[C@H](Cc1ccc(O)cc1)NC(=O)[C@H](CC1CCCCC1)NC(=O)[C@H](Cc1cnc[nH]1)NC(=O)[C@H](CC1CCCCC1)NC(=O)[C@@H](N)Cc1ccc(O)cc1)C(=O)O` had an inhibition in assay [1] of 9%. With `C[C@H](NC(=O)[C@@H](N)[C@@H](C)O[C@H]1O[C@H](CO)[C@@H](O[C@@H]2O[C@H](CO)[C@H](O)[C@H](O)[C@H]2O)[C@H](O)[C@H]1O)C(=O)N[C@@H](CC(N)=O)C(=O)N[C@@H](Cc1ccc(O)cc1)C(=O)N[C@H](C(=O)N[C@@H](CCCNC(=N)N)C(=O)O)[C@@H](C)O[C@H]1O[C@H](CO)[C@@H](O[C@@H]2O[C@H](CO)[C@H](O)[C@H](O)[C@H]2O)[C@H](O)[C@H]1O`, in assay [3], the inhibition was 15%. Regarding `OC[C@H]1O[C@@H](O)[C@H](O)[C@@H](O)[C@H]1O`, in assay [3], the inhibition result was “inactive”. The inhibition in assay [1] amounted to 17%. `CC[C@H](C)[C@H](NC(=O)[C@@H](NC(=O)[C@H](CCCNC(=N)N)NC(=O)[C@H](CCCNC(=N)N)NC(=O)[C@H](Cc1ccc(O)cc1)NC(=O)[C@H](C)N)[C@@H](C)O[C@H]1O[C@H](CO)[C@@H](O[C@@H]2O[C@H](CO)[C@H](O)[C@H](O)[C@H]2O)[C@H](O)[C@H]1O)C(=O)O` (H-AYRRT(X1)I-OH): in assay [1], the inhibition entry was “inactive”. In assay [1], `CC[C@H](C)[C@H](NC(=O)[C@@H](NC(=O)[C@H](CCCNC(=N)N)NC(=O)[C@@H]1CCCN1C(=O)[C@H](CCCNC(=N)N)NC(=O)[C@@H](N)Cc1ccccc1)[C@@H](C)O[C@H]1O[C@H](CO)[C@@H](O[C@@H]2O[C@H](CO)[C@H](O)[C@H](O)[C@H]2O)[C@H](O)[C@H]1O)C(=O)O` (H-FRPRT(X1)I-OH) gave an inhibition of 3%. For the same molecule, in assay [2], the Activity is given as 12%.

Regarding `CC[C@H](C)[C@H](NC(=O)[C@H](Cc1ccccc1)NC(=O)[C@@H](NC(=O)CN)C(C)C)C(=O)N[C@@H](CC1CCCCC1)C(=O)N[C@@H](C)C(=O)O` (H-GVFI[Cha]A-OH), the inhibition entry in assay [1] is “inactive”. Regarding `CC(C)[C@H](NC(=O)[C@H](Cc1cnc[nH]1)NC(=O)[C@@H](N)Cc1cnc[nH]1)C(=O)N[C@@H](Cc1ccc(O)cc1)C(=O)N[C@@H](Cc1ccc(O)cc1)C(=O)N[C@@H](Cc1cnc[nH]1)C(=O)O` (H-HHVYYH-OH), the inhibition entry in assay [3] was “inactive”. As for `CC[C@H](C)[C@H](N)C(=O)N[C@@H](Cc1ccccc1)C(=O)N[C@@H](CCCNC(=N)N)C(=O)N[C@@H](CC1CCCCC1)C(=O)N[C@@H](CCCNC(=N)N)C(=O)N[C@@H](Cc1ccc(O)cc1)C(=O)O` (H-IFR[Cha]RY-OH), the inhibition in assay [1] is 70%. The same measure, in the same setting: to `CSCC[C@H](N)C(=O)N[C@@H](Cc1ccccc1)C(=O)N[C@H](C(=O)N[C@@H](CC1CCCCC1)C(=O)N[C@@H](CC1CCCCC1)C(=O)N[C@@H](CCCNC(=N)N)C(=O)O)C(C)C` (H-MFV[Cha][Cha]R-OH) belongs 22%.

Consider `CC[C@H](C)[C@H](NC(=O)[C@H](CCCNC(=N)N)NC(=O)[C@@H](NC(=O)[C@H](Cc1ccccc1)NC(=O)[C@@H](NC(=O)[C@@H](N)CC(N)=O)[C@@H](C)O[C@H]1O[C@H](CO)[C@@H](O[C@@H]2O[C@H](CO)[C@H](O)[C@H](O)[C@H]2O)[C@H](O)[C@H]1O)C(C)C)C(=O)O` (H-NT(X1)FVRI-OH), for which the inhibition in assay [3] was 44%. Besides, the Activity in assay [4] came out at 40%. For `O=C(O)[C@H](Cc1ccccc1)NC(=O)[C@H](Cc1ccccc1)NC(=O)[C@H](Cc1ccccc1)NC(=O)[C@H](Cc1ccccc1)NC(=O)[C@H](Cc1ccccc1)NC(=O)[C@@H]1CCCN1` (H-PFFFFF-OH), the inhibition in assay [3] came out at 76%. The molecule `CC[C@H](C)[C@H](NC(=O)[C@H](Cc1ccccc1)NC(=O)[C@H](Cc1ccccc1)NC(=O)[C@@H]1CCCN1)C(=O)N[C@@H](CO)C(=O)N[C@@H](CCCNC(=N)N)C(=O)O` (H-PFFISR-OH) returned an inhibition in assay [1] of 9%. In assay [4], this molecule gave an Activity of 63%. For `CC[C@H](C)[C@H](NC(=O)[C@@H]1CCCN1)C(=O)N[C@@H](Cc1ccccc1)C(=O)N[C@H](C(=O)N[C@@H](CCCNC(=N)N)C(=O)N[C@@H](CCCNC(=N)N)C(=O)O)[C@@H](C)O[C@H]1O[C@H](CO)[C@@H](O[C@@H]2O[C@H](CO)[C@H](O)[C@H](O)[C@H]2O)[C@H](O)[C@H]1O` (H-PIFT(X1)RR-OH), in assay [1], the inhibition entry is “inactive”. Turning to `CC(C)[C@H](NC(=O)[C@@H](NC(=O)[C@@H]1CCCN1)[C@@H](C)O[C@H]1O[C@H](CO)[C@@H](O[C@@H]2O[C@H](CO)[C@H](O)[C@H](O)[C@H]2O)[C@H](O)[C@H]1O)C(=O)N[C@@H](C)C(=O)N1CCC[C@H]1C(=O)N[C@@H](CCCNC(=N)N)C(=O)O` (H-PT(X1)VAPR-OH), in assay [3], the inhibition entry was “inactive”. Consider `CC[C@H](C)[C@H](NC(=O)[C@@H](NC(=O)[C@@H]1CCCN1)[C@@H](C)O)C(=O)N[C@@H](Cc1ccccc1)C(=O)N[C@@H](Cc1ccccc1)C(=O)N[C@@H](Cc1ccccc1)C(=O)O` (H-PTIFFF-OH), for which the inhibition result in assay [1] is “inactive”. As for `CC(C)[C@H](NC(=O)[C@H](CC1CCCCC1)NC(=O)[C@H](CC(N)=O)NC(=O)[C@H](CC1CCCCC1)NC(=O)[C@@H]1CCCN1)C(=O)N[C@@H](Cc1ccc(O)cc1)C(=O)O` (H-P[Cha]N[Cha]VY-OH), in assay [1], the inhibition came to 67%. `CC(C)[C@H](NC(=O)[C@@H](N)CCCNC(=N)N)C(=O)N[C@@H](Cc1cnc[nH]1)C(=O)N[C@@H](Cc1ccc(O)cc1)C(=O)N[C@H](C(=O)N[C@@H](CCCNC(=N)N)C(=O)O)[C@@H](C)O[C@H]1O[C@H](CO)[C@@H](O[C@@H]2O[C@H](CO)[C@H](O)[C@H](O)[C@H]2O)[C@H](O)[C@H]1O` (H-RVHYT(X1)R-OH): the inhibition result in assay [3] is “inactive”. This molecule also displayed an Activity in assay [4] of 35%.

With `C[C@H](NC(=O)[C@@H](N)CO)C(=O)N[C@@H](CO)C(=O)N[C@@H](CO)C(=O)N[C@H](C(=O)N[C@@H](CCCNC(=N)N)C(=O)O)[C@@H](C)O[C@H]1O[C@H](CO)[C@@H](O[C@@H]2O[C@H](CO)[C@H](O)[C@H](O)[C@H]2O)[C@H](O)[C@H]1O` (H-SASST(X1)R-OH), the inhibition in assay [1] was determined as 22%. Consider `CC[C@H](C)[C@H](NC(=O)[C@H](Cc1ccccc1)NC(=O)[C@H](CCCNC(=N)N)NC(=O)[C@H](CCCNC(=N)N)NC(=O)[C@H](CC1CCCCC1)NC(=O)[C@@H](N)[C@@H](C)O[C@H]1O[C@H](CO)[C@@H](O[C@@H]2O[C@H](CO)[C@H](O)[C@H](O)[C@H]2O)[C@H](O)[C@H]1O)C(=O)O` (H-T(X1)[Cha]RRFI-OH), for which the inhibition entry in assay [1] was “inactive”. Further, in assay [4], the Activity worked out at 34%.

`CC[C@H](C)[C@H](NC(=O)[C@@H](N)[C@@H](C)O[C@@H]1O[C@H](CO)[C@H](O)[C@H](O)[C@H]1O)C(=O)N[C@H](C(=O)N[C@@H](CCC(N)=O)C(=O)N[C@@H](CC1CCCCC1)C(=O)N[C@@H](Cc1ccc(O)cc1)C(=O)O)[C@@H](C)CC` (H-T(βGal)IIQ[Cha]Y-OH): the inhibition entry in assay [1] was “inactive”. In addition, the Activity in assay [4] stood at 77%. Consider `CC[C@H](C)[C@H](NC(=O)[C@@H](NC(=O)[C@@H](N)CC1CCCCC1)C(C)C)C(=O)N[C@@H](CC(=O)N[C@@H]1O[C@H](CO)[C@H](O)[C@H](O)[C@H]1O)C(=O)N[C@@H](Cc1ccc(O)cc1)C(=O)N[C@@H](CCC(N)=O)C(=O)O` (H-[Cha]VID(X2)YQ-OH), for which the inhibition entry in assay [1] was “inactive”.

`CSCC[C@H](NC(=O)[C@@H]1CCCN1C(=O)[C@H](CCCNC(=N)N)NC(=O)[C@H](CC1CCCCC1)NC(=O)[C@@H](N)CC1CCCCC1)C(=O)N[C@@H](CCCNC(=N)N)C(=O)O` (H-[Cha][Cha]RPMR-OH) yielded an inhibition in assay [3] of 28%. On to LACTOSE, ANHYDROUS, for which the Activity in assay [5] came out at 10%; in assay [6], 43%; in assay [4], 44%; in assay [7] it was 24%. For the same molecule, the inhibition in assay [3] was 44%; in assay [1], 54%.

The term inhibition denotes the change of the read-out against control, counted positive when it falls.
